Measurements from patent US20170232059A1, “COMPOSITION COMPRISING OXYTOCIN” (PEP-TONIC MEDICAL AB, priority 2012, published 2017).
Where two headings read alike, the source gives them in different places. Starred links: 1 amine or outer side, 2 acyl side, 3 side chain; linkers in the order of their positions; H or OH if unused. Positions of bridges follow the written chain, without caps; N, C: chain ends. Residues, ends and D or L forms follow the SMILES beside them. X1 = O=C(CCC[*:2])[*:1]

Tests used:
[1] = in vivo; cited from earlier work
[2] = Blood plasma levels of oxytocin after intravaginal administration (Example 1) and AUC calculation; format: in vivo, human
Description: The first value is taken before the treatment of intravaginal oxytocin has started.
Blood samples were collected from 20 individuals before and repeatedly after administration of oxytocin during a 90 minute period. […] (FIG. 2).
The amount of oxytocin which is absorbed following intravaginal administration of oxytocin expressed as area under the curve (AUC) can be calculated using the trapezoid method according to standardized pharmacokinetic procedures as the clearance rat for oxytocin (CL) is known (70 L/H).
As oxytocin levels were only measured during a 90 minute period it had to be assumed that the concentration of oxytocin after 2 hours continues to fall according to the half-life of oxytocin.

[3] = Skin penetration in Franz diffusion cells; format: in vitro ADME, pig; details: for share that has penetrated the skin: of 200 IU (approx. 0.4 mg)
Description: Skin penetration was performed in Franz diffusion cells using dermatomed pig's ear skin (thickness approx. 500 μm and surface area 0.64 cm^2). The receptor volume of each cell was 6 mL and citrate buffer, pH 4.5 was used as receptor media. The temperature was maintained at 32° C. and the stirring speed in the receptor chamber was kept at 300 rpm. Sampling was done in triplicate at 24 hours intervals for 4 days, i.e. 24, 48, 72 and 96 h. 1.5 mL of receptor media was taken and replaced with the same volume of citrate buffer. Immediately after collection the samples were kept at −20° C.
A water solution of oxytocin was prepared in a concentration of 4000 IU/g, which corresponds to ca 6.8 mg/g. The solution was pH adjusted with a 50 mM citrate buffer to 4.0 in order to achieve reasonable chemical stability. The oxytocin solutions were added in excess, ca 1 g, on the donor side of the skin and covered to prevent evaporation.
The samples were thawed just prior analysis by HPLC, method M272-0. The limit of quantification (QL) is 12.5 ng/mL or 1.25 ng injected amount.

[4] = Bioavailability of vaginally administered oxytocin, study OXYPEP002; format: in vivo; details: human; for level at 0.5 h / level at 1 h / level at 2 h: post-dose; for level at 0.5 h: read-out: Average blood oxytocin level, 30 min Visit 2; for level at 1 h: read-out: Average blood oxytocin level, 60 min Visit 2; for level at 2 h: read-out: Average blood oxytocin level, 120 min Visit 2; for AUC(0-t): read-out: AUC0-30 min
Description: The objective of the present analysis was to estimate the bioavailability of oxytocin following vaginal administration of 100 (170 μg) or 400 IU (680 μg) oxytocin vaginal gel using data from study OXYPEP002 (Clinical trial protocol OXYPEP002). The oxytocin vaginal gel is Vagitocin® gel.
Data from study OXYPEP002 was used for the analysis. Study OXYPEP002 was conducted with the primary objective to investigate the dose-relationship of topical Vagitocin on the vaginal mucosal membrane (Clinical trial protocol OXYPEP002). OXYPEP002 was a double-blind, randomized, placebo controlled trial, with a parallel group design. Vagitocin (oxytocin gel) in two different doses (100 IU and 400 IU) was administered topically once daily during 7 weeks. A placebo gel with the same composition was used as comparator. In total 64 patients were to be included in the study. At the baseline visit (visit 1), blood sampling for oxytocin analysis were drawn for the first 24 included subjects. This sample represents the true baseline oxytocin observation. For the same 24 subjects, blood sampling for oxytocin analysis were also drawn at visit 2 (2 weeks ±2 days) with sampling pre-dose and at 30 min, 60 min and 120 min post-dose. Only subjects that completed the full sampling schedule were included in the analysis. The calculations were based on average blood oxytocin measurements for each dose level and sampling time point (Table 2).
The systemic oxytocin exposure following vaginally administered oxytocin was assessed by calculating the area under the blood concentration versus time curve (AUC) according to the trapezoidal rule. The data from visit 2 were used where the pre-dose sample was assumed to represent a new baseline observation.
The blood concentration of oxytocin had not returned to the baseline observation at the lasts sampling time point (120 min post-dose).
The endogenous oxytocin level (AUCbaseline) was calculated and subtracted from the total AUC to achieve the oxytocin exposure following the vaginally administered dose (AUCvaginal).
The bioavailability was calculated according to equation 1. As no intravenous dose was administered in study OXYPEP002, AUCiv was calculated according to available information in the literature (De Groot A N et al. 1995, Amico J A et al. 1987, Dawood M Y et al. 1980) according to equation 2.

[5] = cited from earlier work
[6] = six male subjects, intravenous 1 IU (De Groot 1995)

## CC[C@H](C)[C@@H]1NC(=O)[C@H](Cc2ccc(OC)cc2)NC(=O)CCCSC[C@@H](C(=O)N2CCC[C@H]2C(=O)N[C@@H](CC(C)C)C(=O)NCC(N)=O)NC(=O)[C@H](CC(N)=O)NC(=O)[C@H](CCC(N)=O)NC1=O [carbetocin] (Y(Me)IQNCPLG-NH2; linker N-5 via X1)
[1]
  half-life relative to oxytocin: about three times longer

## CC[C@H](C)[C@@H]1NC(=O)[C@H](Cc2ccc(O)cc2)NC(=O)[C@@H](N)CSSC[C@@H](C(=O)N2CCC[C@H]2C(=O)N[C@@H](CC(C)C)C(=O)NCC(N)=O)NC(=O)[C@H](CC(N)=O)NC(=O)[C@H](CCC(N)=O)NC1=O [oxytocin, Cys-Tyr-Ile-Gln-Asn-Cys-Pro-Leu-Gly-NH2]
[2]; 100 IU intravaginal
  fraction of the given dose absorbed: 0.064
[2]; 100 and 400 IU intravaginal, FIG. 2
  plasma oxytocin levels at 15, 30, 60 and 90 minutes after administration: elevated in a pulse like fashion
[2]; 400 IU intravaginal
  fraction of the given dose absorbed: 0.11
[2]; following 100 and 400 IU intravaginal, 90 minute period
  plasma levels of oxytocin: rose dose dependently
[2]; intravaginal, FIG. 2, vs before treatment
  plasma oxytocin value obtained 10 hours after treatment: higher than those observed before treatment was started
[2]; topical composition comprising a non-ionic cellulose ether
  absorbed via the epithelial membrane into the blood stream: about 10%
[3]; after 24 h
  share that has penetrated the skin: 0.1%
[3]; after 24 h, 4000 IU/g water solution
  oxytocin penetrated into receptor: 0.6 µg
[3]; after 96 h
  share that has penetrated the skin: ~1%
[3]; after 96 hours, 4000 IU/g citrate buffered water solution, pH 4.0, 32° C.
  oxytocin detected in the receptor chamber: 4 µg
[4]; female, blood, 100 IU, 100 IU vaginal, read-out: AUC30-60 min
  AUC: 0.0633 ng·h/mL
[4]; female, blood, 100 IU, 100 IU vaginal, read-out: AUC60-120 min
  AUC: 0.11 ng·h/mL
[4]; female, blood, 100 IU, 100 IU vaginal, residual area alternative i, read-out: AUCresidual
  AUC: 0.346 ng·h/mL
[4]; female, blood, 100 IU, 100 IU vaginal, residual area alternative i, read-out: AUCvaginal
  AUC: 0.299 ng·h/mL
[4]; female, blood, 100 IU, 100 IU vaginal, residual area alternative i, read-out: Bioavailability
  bioavailability: 12%
[4]; female, blood, 100 IU, 100 IU vaginal, residual area alternative ii, read-out: AUCresidual
  AUC: 0.0322 ng·h/mL
[4]; female, blood, 100 IU, 100 IU vaginal, residual area alternative ii, read-out: AUCvaginal
  AUC: 0.156 ng·h/mL
[4]; female, blood, 100 IU, 100 IU vaginal, residual area alternative ii, read-out: Bioavailability
  bioavailability: 6.4%
[4]; female, blood, 400 IU, 400 IU vaginal, read-out: AUC30-60 min
  AUC: 0.362 ng·h/mL
[4]; female, blood, 400 IU, 400 IU vaginal, read-out: AUC60-120 min
  AUC: 0.504 ng·h/mL
[4]; female, blood, 400 IU, 400 IU vaginal, residual area alternative i, read-out: AUCresidual
  AUC: 0.783 ng·h/mL
[4]; female, blood, 400 IU, 400 IU vaginal, residual area alternative i, read-out: AUCvaginal
  AUC: 1.53 ng·h/mL
[4]; female, blood, 400 IU, 400 IU vaginal, residual area alternative i, read-out: Bioavailability
  bioavailability: 16%
[4]; female, blood, 400 IU, 400 IU vaginal, residual area alternative ii, read-out: AUCresidual
  AUC: 0.193 ng·h/mL
[4]; female, blood, 400 IU, 400 IU vaginal, residual area alternative ii, read-out: AUCvaginal
  AUC: 1.1 ng·h/mL
[4]; female, blood, 400 IU, 400 IU vaginal, residual area alternative ii, read-out: Bioavailability
  bioavailability: 11%
[4]; female, blood, vaginal, 100 and 400 IU, read-out: bioavailability, range over both dose levels and alternatives
  bioavailability: 6.4 to 16%
[4]; female, blood, 100 IU vaginal
  level at 0.5 h: 0.133 ng/mL
  level at 1 h: 0.12 ng/mL
  level at 2 h: 0.099 ng/mL
  AUC(0-t): 0.0426 ng·h/mL
[4]; female, blood, 400 IU vaginal
  level at 0.5 h: 0.816 ng/mL
  level at 1 h: 0.63 ng/mL
  level at 2 h: 0.378 ng/mL
  AUC(0-t): 0.219 ng·h/mL
[4]; in vivo, iv, 1 ug, AUCiv, assumed intravenous dose of 1 μg and a CL of 70 L/h
  AUC: 0.0143 ng·h/mL
[5]; healthy male subjects (Amico 1987, Dawood 1980)
  CL: 70 to 90 L/h
[5]; known value used for AUC calculation
  clearance rate (CL): 70 L/H
[5]; [6]
  terminal elimination half-life (t1/2): 19.8 min
  volume of distribution (V): 33.2 L
[5]; six male subjects, intravenous dose of 1 IU (1.7 μg), two-compartment model (De Groot 1995)
  total body CL: 67.1 L/h
[1]
  half-life: about 30 min
